Data from patent US7750013B2, “N-oxides as prodrugs of piperazine and piperidine derivatives” (Solvay Pharmaceuticals, B.V., priority 2005, dated 2010).

How the values were obtained:
[1] = Plasma concentrations of tertiary amines and their N-oxides in mice (LC-MS); details: mouse, in vivo
Method: The LC-MS system consists of 2 Perkin elmer series 200 micro pumps. The pumps are connected to each other by a 50 μl tee mixer, connected to a Gilson 215 auto sampler. The method is as follows:
The auto sampler has a 2 μl injection loop. The auto sampler is connected to a Waters Atlantis C18 30*4.6 mm column with 3 μm particles. The column is thermo stated in a Perkin Elmer series 200 column oven at 40° C. The column is connected to a Perkin Elmer series 200 UV meter with a 2.7 μl flowcel. The wavelength is set to 254 nm. The UV meter is connected to a Sciex API 150EX mass spectrometer. The mass spectrometer has the following parameters: Scanrange: 150-900 a.m.u.; polarity: positive; scan mode: profile; resolution Q1: UNIT; step size: 0.10 a.m.u.; time per scan: 0.500 sec; NEB: 10; CUR: 10; IS: 5200; TEM: 325; DF: 30; FP: 225 and EP: 10. The light scattering detector is connected to the Sciex API 150. The light scattering detector is a Sedere Sedex 55 operating at 50° C. and 3 bar N2. The complete system is controlled by a G3 powermac.
For oral (p.o.) administration: to the desired quantity (0.5-5 mg) of the solid test compound in a glass tube, some glass beads were added and the solid was milled by vortexing for 2 minutes. After addition of 1 ml of a solution of 1% methylcellulose in water and 2% (v/v) of Poloxamer 188 (Lutrol F68), the compound was suspended by vortexing for 10 minutes. The pH was adjusted to 7. Remaining particles in the suspension were further suspended by using an ultrasonic bath.
For intravenous (i.v.) administration: compounds were dissolved in physiological saline (0.9% NaCl) and the pH was adjusted to 7.
Bifeprunox, SLV308 and SLV318 as well as their respective N-oxides were individually administered (either intravenously (i.v.) or orally (p.o.)) to mice (3 animals per time point), after which their blood was analyzed by LC-MS (method see above) for both the parent amine and its N-oxide. Data were averaged (n=3), and collected in the tables below.

[2] = Metabolism to the N-oxide in man; type: in vivo; details: after administration of the tertiary amine
Text: But also its N-desmethyl analog and its N-oxide were detected in the plasma of all three species, after oral administration of SLV308. In man, the N-oxide accounts for approximately 30% of the administered dose.
In man, neither bifeprunox nor SLV318 are metabolized to their respective N-oxides. […] For this reason there never has been an incentive to synthesize and study these compounds until the unexpected findings with the N-oxide of SLV308.

Compound: O=c1[nH]c2cccc(N3CC[N+]([O-])(Cc4ccccc4)CC3)c2o1 [N-oxide of SLV318, N-Oxide of SLV318]
- Analyzed in blood: N-oxide (of SLV318) ([1]; iv, 0.5 mg/kg, 24 hr): 0 ng/mL
- Analyzed in blood: SLV318 ([1]; po, 5 mg/kg, 0.17 hr): 1 ng/mL
- Analyzed in blood: SLV318 ([1]; po, 5 mg/kg, 0.5 hr): 7 ng/mL
- Analyzed in blood: N-oxide (of SLV318) ([1]; po, 5 mg/kg, 3 hr): 0 ng/mL
- Analyzed in blood: SLV318 ([1]; po, 5 mg/kg, 24 hr): 0 ng/mL

Compound: O=c1[nH]c2cccc(N3CC[N+]([O-])(Cc4cccc(-c5ccccc5)c4)CC3)c2o1 [N-oxide of bifeprunox, N-Oxide of Bifeprunox]
- Analyzed in blood: Bifeprunox ([1]; iv, 0.5 mg/kg, 0 hr): 0 ng/mL
- Analyzed in blood: Bifeprunox ([1]; iv, 0.5 mg/kg, 0.5 hr): 176 ng/mL
- Analyzed in blood: N-oxide (of bifeprunox) ([1]; iv, 0.5 mg/kg, 0.5 hr): 85 ng/mL
- Analyzed in blood: Bifeprunox ([1]; iv, 0.5 mg/kg, 3 hr): 80 ng/mL
- Analyzed in blood: N-oxide (of bifeprunox) ([1]; iv, 0.5 mg/kg, 7 hr): 5 ng/mL
- Analyzed in blood: N-oxide (of bifeprunox) ([1]; iv, 0.5 mg/kg, 24 hr): 0 ng/mL
- Analyzed in blood: Bifeprunox ([1]; po, 5 mg/kg, 1 hr): 520 ng/mL
- Analyzed in blood: N-oxide (of bifeprunox) ([1]; po, 5 mg/kg, 1 hr): 70 ng/mL
- Analyzed in blood: N-oxide (of bifeprunox) ([1]; po, 5 mg/kg, 7 hr): 48 ng/mL
- Analyzed in blood: Bifeprunox ([1]; po, 5 mg/kg, 24 hr): 38 ng/mL
- Analyzed in blood: N-oxide (of bifeprunox) ([1]; po, 5 mg/kg, 24 hr): 6 ng/mL

Compound: O=c1[nH]c2cccc(N3CCN(Cc4ccccc4)CC3)c2o1 [SLV318]
- Formation of N-oxide as metabolite (in words) [1]: does not give rise to a significant amount of N-oxide as metabolite
- Analyzed in blood: N-oxide (of SLV318) ([1]; iv, 0.5 mg/kg, 0.17 hr): 1 ng/mL
- Analyzed in blood: SLV318 ([1]; iv, 0.5 mg/kg, 0.17 hr): 164 ng/mL
- Analyzed in blood: N-oxide (of SLV318) ([1]; iv, 0.5 mg/kg, 0.5 hr): 0 ng/mL
- Analyzed in blood: SLV318 ([1]; iv, 0.5 mg/kg, 0.5 hr): 51 ng/mL
- Analyzed in blood: N-oxide (of SLV318) ([1]; iv, 0.5 mg/kg, 1 hr): 0 ng/mL
- Analyzed in blood: SLV318 ([1]; iv, 0.5 mg/kg, 1 hr): 18 ng/mL
- Analyzed in blood: N-oxide (of SLV318) ([1]; iv, 0.5 mg/kg, 3 hr): 0 ng/mL
- Analyzed in blood: SLV318 ([1]; iv, 0.5 mg/kg, 3 hr): 2 ng/mL
- Analyzed in blood: N-oxide (of SLV318) ([1]; iv, 0.5 mg/kg, 7 hr): 0 ng/mL
- Analyzed in blood: SLV318 ([1]; iv, 0.5 mg/kg, 7 hr): 0.2 ng/mL
- Analyzed in blood: N-oxide (of SLV318) ([1]; iv, 0.5 mg/kg, 24 hr): 0 ng/mL
- Analyzed in blood: SLV318 ([1]; iv, 0.5 mg/kg, 24 hr): 0 ng/mL
- Analyzed in blood: N-oxide (of SLV318) ([1]; po, 5 mg/kg, 0.17 hr): 0 ng/mL
- Analyzed in blood: SLV318 ([1]; po, 5 mg/kg, 0.17 hr): 71 ng/mL
- Analyzed in blood: N-oxide (of SLV318) ([1]; po, 5 mg/kg, 0.5 hr): 0 ng/mL
- Analyzed in blood: SLV318 ([1]; po, 5 mg/kg, 0.5 hr): 33 ng/mL
- Analyzed in blood: N-oxide (of SLV318) ([1]; po, 5 mg/kg, 1 hr): 0 ng/mL
- Analyzed in blood: SLV318 ([1]; po, 5 mg/kg, 1 hr): 19 ng/mL
- Analyzed in blood: N-oxide (of SLV318) ([1]; po, 5 mg/kg, 3 hr): 0 ng/mL
- Analyzed in blood: SLV318 ([1]; po, 5 mg/kg, 3 hr): 9 ng/mL
- Analyzed in blood: N-oxide (of SLV318) ([1]; po, 5 mg/kg, 7 hr): 0 ng/mL
- Analyzed in blood: SLV318 ([1]; po, 5 mg/kg, 7 hr): 2 ng/mL
- Analyzed in blood: N-oxide (of SLV318) ([1]; po, 5 mg/kg, 24 hr): 0 ng/mL
- Analyzed in blood: SLV318 ([1]; po, 5 mg/kg, 24 hr): 0 ng/mL
- N-oxide as metabolite in blood plasma (in words) [2]: never detected in significant concentrations
